{"source": "patent US20230085307A1", "about": "“PYRIDAZINONE COMPOUND AND HERBICIDE” (NISSAN CHEMICAL CORPORATION, priority 2019, published 2023)", "key": {"chickweed": {"test_system": "chickweed", "experiment": "Test Example 4: herbicidal effect by soil treatment (Table 19, symbol P)", "type": "in vivo, common chickweed (Stellaria media)", "settings": "320 g/ha", "how_it_was_run": "(§1)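 In this soil treatment, the formulated compound reached the seeds only through the soil: seeds were buried about 1.5 cm deep in sterilized diluvial soil, then the diluted emulsion was sprayed over the surface. After three weeks at 25° C. to 30° C. in a greenhouse, effects were graded on criteria from an earlier test.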"}, "barnyard grass [1]": {"test_system": "barnyard grass", "experiment": "Test Example 5: herbicidal effect by foliage application, plastic box (Table 20, symbol H)", "type": "in vivo, barnyard grass (Echinochloa crus-galli)", "settings": "foliage application, 320 g/ha, 3 weeks after application", "how_it_was_run": "(§2)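 Plants were sown into sterilized diluvial soil under about 1.5 cm cover and kept in a greenhouse at 25° C. to 30° C. Fourteen days on, foliage received an even spray of the diluted emulsion. Herbicidal or crop effect was judged three weeks afterwards.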"}, "redroot pigweed": {"test_system": "redroot pigweed", "experiment": "Test Example 4: herbicidal effect by soil treatment (Table 19, symbol N)", "type": "in vivo, redroot pigweed (Amaranthus retroflexus)", "settings": "320 g/ha", "how_it_was_run": "as §1"}, "lambsquarters [2]": {"test_system": "lambsquarters", "experiment": "Test Example 4: herbicidal effect by soil treatment (Table 19, symbol O)", "type": "in vivo, lambsquarters (Chenopodium album)", "settings": "320 g/ha", "how_it_was_run": "as §1"}, "green foxtail [3]": {"test_system": "green foxtail", "experiment": "Test Example 4: herbicidal effect by soil treatment (Table 19, symbol G)", "type": "in vivo, green foxtail (Setaria viridis)", "settings": "320 g/ha", "how_it_was_run": "as §1"}, "windgrass [4]": {"test_system": "windgrass", "experiment": "Test Example 4: herbicidal effect by soil treatment (Table 19, symbol L)", "type": "in vivo, windgrass (Apera spica-venti)", "settings": "320 g/ha", "how_it_was_run": "as §1"}, "wild oat [5]": {"test_system": "wild oat", "experiment": "Test Example 5: herbicidal effect by foliage application, plastic box (Table 20, symbol I)", "type": "in vivo, wild oat (Avena fatua)", "settings": "foliage application, 320 g/ha, 3 weeks after application", "how_it_was_run": "as §2"}, "rice flat sedge": {"test_system": "rice flat sedge", "experiment": "Test Example 3: herbicidal effect by foliage application, Wagner pot (Table 18, symbol E)", "type": "in vivo, rice flat sedge (Cyperus iria)", "settings": "320 g/ha", "how_it_was_run": "(§3)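 Plants were sown in alluvial soil held under 0.1–0.5 cm standing water and grown 14 days in a greenhouse at 25–30 °C. An emulsifiable formulation, water-diluted to the set dose, was then sprayed onto the foliage, and effects were scored three weeks later using previously defined criteria.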"}, "windgrass [6]": {"test_system": "windgrass", "experiment": "Test Example 5: herbicidal effect by foliage application, plastic box (Table 20, symbol L)", "type": "in vivo, windgrass (Apera spica-venti)", "settings": "foliage application, 320 g/ha, 3 weeks after application", "how_it_was_run": "as §2"}, "southern crabgrass [7]": {"test_system": "southern crabgrass", "experiment": "Test Example 4: herbicidal effect by soil treatment (Table 19, symbol F)", "type": "in vivo, southern crabgrass (Digitaria ciliaris)", "settings": "320 g/ha", "how_it_was_run": "as §1"}, "lambsquarters [8]": {"test_system": "lambsquarters", "experiment": "Test Example 5: herbicidal effect by foliage application, plastic box (Table 20, symbol O)", "type": "in vivo, lambsquarters (Chenopodium album)", "settings": "foliage application, 320 g/ha, 3 weeks after application", "how_it_was_run": "as §2"}, "barnyard grass [9]": {"test_system": "barnyard grass", "experiment": "Test Example 4: herbicidal effect by soil treatment (Table 19, symbol H)", "type": "in vivo, barnyard grass (Echinochloa crus-galli)", "settings": "320 g/ha", "how_it_was_run": "as §1"}, "Italian ryegrass [10]": {"test_system": "Italian ryegrass", "experiment": "Test Example 4: herbicidal effect by soil treatment (Table 19, symbol K)", "type": "in vivo, Italian ryegrass (Lolium multiflorum)", "settings": "320 g/ha", "how_it_was_run": "as §1"}, "velvetleaf [11]": {"test_system": "velvetleaf", "experiment": "Test Example 4: herbicidal effect by soil treatment (Table 19, symbol M)", "type": "in vivo, velvetleaf (Abutilon theophrasti)", "settings": "320 g/ha", "how_it_was_run": "as §1"}, "velvetleaf [12]": {"test_system": "velvetleaf", "experiment": "Test Example 5: herbicidal effect by foliage application, plastic box (Table 20, symbol M)", "type": "in vivo, velvetleaf (Abutilon theophrasti)", "settings": "foliage application, 320 g/ha, 3 weeks after application", "how_it_was_run": "as §2"}, "persian speedwell [13]": {"test_system": "persian speedwell", "experiment": "Test Example 5: herbicidal effect by foliage application, plastic box (Table 20, symbol R)", "type": "in vivo, Persian speedwell (Veronica persica)", "settings": "foliage application, 320 g/ha, 3 weeks after application", "how_it_was_run": "as §2"}, "Chinese sprangletop": {"test_system": "Chinese sprangletop", "experiment": "Test Example 3: herbicidal effect by foliage application, Wagner pot (Table 18, symbol D)", "type": "in vivo, chinese sprangletop (Leptochloa chinensis)", "settings": "320 g/ha", "how_it_was_run": "as §3"}, "Italian ryegrass [14]": {"test_system": "Italian ryegrass", "experiment": "Test Example 5: herbicidal effect by foliage application, plastic box (Table 20, symbol K)", "type": "in vivo, Italian ryegrass (Lolium multiflorum)", "settings": "foliage application, 320 g/ha, 3 weeks after application", "how_it_was_run": "as §2"}, "wild oat [15]": {"test_system": "wild oat", "experiment": "Test Example 4: herbicidal effect by soil treatment (Table 19, symbol I)", "type": "in vivo, wild oat (Avena fatua)", "settings": "320 g/ha", "how_it_was_run": "as §1"}, "green foxtail [16]": {"test_system": "green foxtail", "experiment": "Test Example 5: herbicidal effect by foliage application, plastic box (Table 20, symbol G)", "type": "in vivo, green foxtail (Setaria viridis)", "settings": "foliage application, 320 g/ha, 3 weeks after application", "how_it_was_run": "as §2"}, "southern crabgrass [17]": {"test_system": "southern crabgrass", "experiment": "Test Example 5: herbicidal effect by foliage application, plastic box (Table 20, symbol F)", "type": "in vivo, southern crabgrass (Digitaria ciliaris)", "settings": "foliage application, 320 g/ha, 3 weeks after application", "how_it_was_run": "as §2"}, "blackgrass": {"test_system": "blackgrass", "experiment": "Test Example 5: herbicidal effect by foliage application, plastic box (Table 20, symbol J)", "type": "in vivo, blackgrass (Alopecurus myosuroides)", "settings": "foliage application, 320 g/ha, 3 weeks after application", "how_it_was_run": "as §2"}, "persian speedwell [18]": {"test_system": "persian speedwell", "experiment": "Test Example 4: herbicidal effect by soil treatment (Table 19, symbol R)", "type": "in vivo, Persian speedwell (Veronica persica)", "settings": "320 g/ha", "source_text": "[Test Example 4] Herbicidal Effect Test by Soil Treatment\nSterilized diluvial soil was placed in a plastic box having a length of 21 cm, a width of 13 cm, and a depth of 7 cm. The seeds of each of southern crabgrass, green foxtail, barnyard grass, wild oat, blackgrass, Italian ryegrass, windgrass, velvetleaf, redroot pigweed, lambsquarters, chickweed, false cleavers, persian speedwell, corn, soybean, rice, wheat, beet, and rapeseed were sowed in a spot-like manner and covered with the soil having a thickness of about 1.5 cm. Subsequently, the emulsion agent of the compound of the present invention prepared according to Formulation Example 2 was diluted with water so as to achieve a predetermined herbicide amount, and the diluted emulsion agent was uniformly applied to the surface of the soil with a small-sized spray. The plastic box was placed in a greenhouse at 25° C. to 30° C. for growth of the plants. Three weeks after the herbicide application, the effect of the herbicide on each plant was evaluated according to the criteria of Test Example 1."}, "barnyard grass [19]": {"test_system": "barnyard grass", "experiment": "Test Example 3: herbicidal effect by foliage application, Wagner pot (Table 18, symbol H)", "type": "in vivo, barnyard grass (Echinochloa crus-galli)", "settings": "320 g/ha", "how_it_was_run": "as §3"}}}
{"smiles": "Cc1nn(C)c(=O)c(-c2c(-c3ccc(F)cc3)sc3ccc(F)cc23)c1OCC(=O)c1ccccc1", "note": "[2-008]", "values": [{"measurement": "herbicidal effect rating, P: chickweed", "setting": "chickweed", "result": "0 (Herbicidal rate of 5% or less (almost no effect))"}, {"measurement": "effect on barnyard grass (H)", "setting": "barnyard grass [1]", "result": "0 (Herbicidal rate of 5% or less (almost no effect))"}, {"measurement": "herbicidal effect rating, N: redroot pigweed", "setting": "redroot pigweed", "result": "4 (Herbicidal rate of 70% or more and less than 90%)"}, {"measurement": "herbicidal effect rating, O: lambsquarters", "setting": "lambsquarters [2]", "result": "0 (Herbicidal rate of 5% or less (almost no effect))"}, {"measurement": "herbicidal effect rating, G: green foxtail", "setting": "green foxtail [3]", "result": "0 (Herbicidal rate of 5% or less (almost no effect))"}, {"measurement": "herbicidal effect rating, L: windgrass", "setting": "windgrass [4]", "result": "0 (Herbicidal rate of 5% or less (almost no effect))"}, {"measurement": "effect on wild oat (I)", "setting": "wild oat [5]", "result": "0 (Herbicidal rate of 5% or less (almost no effect))"}, {"measurement": "herbicidal effect on E (rice flat sedge), rating 0-5", "setting": "rice flat sedge", "result": "4 (Herbicidal rate of 70% or more and less than 90%)"}, {"measurement": "effect on windgrass (L)", "setting": "windgrass [6]", "result": "0 (Herbicidal rate of 5% or less (almost no effect))"}, {"measurement": "herbicidal effect rating, F: southern crabgrass", "setting": "southern crabgrass [7]", "result": "0 (Herbicidal rate of 5% or less (almost no effect))"}, {"measurement": "effect on lambsquarters (O)", "setting": "lambsquarters [8]", "result": "1 (Herbicidal rate of 5% or more and less than 20%)"}, {"measurement": "herbicidal effect rating, H: barnyard grass", "setting": "barnyard grass [9]", "result": "0 (Herbicidal rate of 5% or less (almost no effect))"}, {"measurement": "herbicidal effect rating, K: Italian ryegrass", "setting": "Italian ryegrass [10]", "result": "0 (Herbicidal rate of 5% or less (almost no effect))"}, {"measurement": "herbicidal effect rating, M: velvetleaf", "setting": "velvetleaf [11]", "result": "0 (Herbicidal rate of 5% or less (almost no effect))"}, {"measurement": "effect on velvetleaf (M)", "setting": "velvetleaf [12]", "result": "1 (Herbicidal rate of 5% or more and less than 20%)"}, {"measurement": "effect on persian speedwell (R)", "setting": "persian speedwell [13]", "result": "3 (Herbicidal rate of 40% or more and less than 70%)"}, {"measurement": "herbicidal effect on D (Chinese sprangletop), rating 0-5", "setting": "Chinese sprangletop", "result": "1 (Herbicidal rate of 5% or more and less than 20%)"}, {"measurement": "effect on Italian ryegrass (K)", "setting": "Italian ryegrass [14]", "result": "3 (Herbicidal rate of 40% or more and less than 70%)"}, {"measurement": "herbicidal effect rating, I: wild oat", "setting": "wild oat [15]", "result": "0 (Herbicidal rate of 5% or less (almost no effect))"}, {"measurement": "effect on green foxtail (G)", "setting": "green foxtail [16]", "result": "0 (Herbicidal rate of 5% or less (almost no effect))"}, {"measurement": "effect on southern crabgrass (F)", "setting": "southern crabgrass [17]", "result": "0 (Herbicidal rate of 5% or less (almost no effect))"}, {"measurement": "effect on blackgrass (J)", "setting": "blackgrass", "result": "0 (Herbicidal rate of 5% or less (almost no effect))"}, {"measurement": "herbicidal effect rating, R: persian speedwell", "setting": "persian speedwell [18]", "result": "0 (Herbicidal rate of 5% or less (almost no effect))"}, {"measurement": "herbicidal effect on H (barnyard grass), rating 0-5", "setting": "barnyard grass [19]", "result": "2 (Herbicidal rate of 20% or more and less than 40%)"}]}
